Experiments:
ATXN3 pre-mRNA = experiment: RT-qPCR Assay to Quantify Exon 4 Skipping in ATXN3 pre-mRNA in Cells; type: cell-based; conditions: percent exon 4 skipping in ATXN3 pre-mRNA, RT-qPCR of cell lysates; average IC50
Method: RT-qPCR Assay to Quantify Exon 4 Skipping in ATXN3 pre-mRNA in Cells
(§1) Test compounds were serially diluted 3.16-fold in 100% DMSO to generate a 7-point concentration curve. Aliquots of 0.5 μL of diluted compounds were transferred to a 96-well flat bottom plate by a liquid handler. An aliquot of 0.5 μL DMSO was also transferred to separate wells and used as controls. Duplicate samples were set up for each compound concentration and for the DMSO control.
Cells were thawed and incubated in cell culture media (DMEM, 10% FBS, and 1% antibiotic cocktail) for 72 h. Cells were trypsinized, counted, and re-suspended to a concentration of 100,000 cells/mL in cell culture media. A 100 μL aliquot of the cell suspensions were plated at 10,000 cells per well in the compound containing 96 well microtiter plate and incubated for in a cell culture incubator (37° C., 5% CO2, 100% relative humidity).
After 24 h, media was aspirated from the cells and 50 μL of the RCL2 lysis buffer (10 mM Tris-HCL pH 7.4, 150 mM NaCl, 0.33% IGEPAL® CA-630) was added to each well and incubated at RT for 1 min. Chilled nuclease free water (50 μL per well) was added and the plates were immediately transferred on ice. After 1 min on ice, plates were frozen at −80° C. overnight.
Preparation of RT-qPCR Reaction Mixture:
An aliquot of 2 μL/well of the cell lysates was transferred using the liquid handler to the Armadillo 384-Well PCR plate containing 8 μL/well of the RT-qPCR reaction mixture that was prepared as detailed above. The plates were then sealed with MicroAmp™ Optical Adhesive Film followed by spinning down for 1 min and placed in the CFX384 thermocycler (BioRad).
The RT-qPCR was carried out at the following temperatures for the indicated time: • Step 1: 48° C. (30 min) • Step 2: 95° C. (10 min) • Step 3: 95° C. (15 sec) • Step 4: 60° C. (1 min); then, repeated Steps 3 and 4 for a total of 40 cycles.
The percent exon 4 skipping was calculated for each dose of compound treatment using Equations 1 and 2.
Data were fit to a dose response curve and the IC50 was interpolated using XLfit® statistical and curve fitting package.
(§2) An average IC50>1 μM is indicated by one star (*), between >0.3 μM and ≤1 μM is indicated by two stars (**), between >0.03 μM and ≤0.3 μM is indicated by three stars (***), and ≤0.03 μM is indicated by four stars (****).

[1] = system: Total ATXN3 (tATXN3) protein; experiment: Endogenous Total ATXN3 (tATXN3) Protein Assay (MSD immunoassay of cell lysates); type: cell-based; conditions: average IC50, total ATXN3 protein in cell lysate after 48 h with compound (Table 1)
Method: Endogenous Total ATXN3 (tATXN3) Protein Assay
Meso Scale Discovery (MSD) 96-well or 384-well plates were coated overnight at 4° C. with Ataxin 3 mouse monoclonal antibody (Invitrogen, MA3-082) at a concentration of 0.5 μg/mL in PBS (30 μL per well). Plates were then washed three times with 300 μL wash buffer (0.05% TWEEN®-20, polyethylene glycol sorbitan monolaurate, in PBS) and blocked (Meso Scale Diagnostics, R93BA-1; 5% BSA in PBS) for 2 h at RT with rotational shaking and then washed three times with wash buffer.
as §1
Cells were thawed and incubated in cell culture media (DMEM, 10% FBS, and 1% antibiotic cocktail) for 72 h. Cells were trypsinized, counted, and re-suspended to a concentration of 100,000 cells/mL in cell culture media. A 100 μL aliquot of the cell suspensions were plated at 10,000 cells per well in the compound containing 96 well microtiter plate and incubated for in a cell culture incubator (37° C., 5% CO2, 100% relative humidity). After 48 h, the medium was removed and 50-100 μL of lysis buffer (Meso Scale Diagnostics, R60TX-2) containing 1× halt protease inhibitor cocktail of (Thermo Scientific, Halt™ Protease Inhibitor Cocktail, 78430) per well was added to cells to provide a “cell lysate”. The plate was placed on a shaker at 4° C. for 30 minutes, then stored at −80° C.
Cell lysate samples (25 μL) were transferred to the antibody-coated MSD plate and incubated overnight at 4° C. After removal of the lysates, the plate was washed three times with wash buffer, and 25 μL of Ataxin 3 recombinant rabbit monoclonal antibody (Invitrogen, #702788) secondary antibody (diluted to 0.25 μg/mL in 0.05% TWEEN®-20 in blocking buffer) was added to each well and incubated with shaking for 1-2 h at room temperature. Following incubation with the secondary antibody, the wells were rinsed with wash buffer and then 25 μL of Anti Rabbit Antibody Goat SULFO-TAG Labeled (Meso Scale Diagnostics, R32AB-1) detecting antibody (diluted to […] in 0.05% TWEEN®-20 in blocking buffer) was added to each well and incubated with shaking for 1 h at room temperature. After rinsing three times with wash buffer, 150 μL of Read Buffer T with surfactant (tris-based buffer containing tripropylamine, Meso Scale Diagnostics, R92TC-1) were added to each empty well, and the plate was imaged on a SI 6000 imager (MSD) according to manufacturers' instructions provided for 96- or 384-well plates.
as §2

Substance | IC50 (ATXN3 pre-mRNA) | IC50 [1]
2-((1R,6R)-6-aminocyclohex-3-en-1-yl-2,2,3,4,5,5-d6)-3,5-dichloro-N-(furan-2-ylmethyl)thieno[3,2-b]pyridin-7-amine and 2-((1S,6S)-6-aminocyclohex-3-en-1-yl-2,2,3,4,5,5-d6)-3,5-dichloro-N-(furan-2-ylmethyl)thieno[3,2-b]pyridin-7-amine [Compound 180] | ≤ 30 nM | ≤ 30 nM
2-((1R,6R)-6-aminocyclohex-3-en-1-yl-2,2,3,4,5,5-d6)-5-chloro-N-(furan-2-ylmethyl)-3-methylthieno[3,2-b]pyridin-7-amine and 2-((1S,6S)-6-aminocyclohex-3-en-1-yl-2,2,3,4,5,5-d6)-5-chloro-N-(furan-2-ylmethyl)-3-methylthieno[3,2-b]pyridin-7-amine [Compound 171] | ≤ 30 nM | ≤ 30 nM
2-((1R,6R)-6-aminocyclohex-3-en-1-yl-2,2,3,4,5,5-d6)-N-benzyl-5-chloro-3-methylthieno[3,2-b]pyridin-7-amine and 2-((1S,6S)-6-aminocyclohex-3-en-1-yl-2,2,3,4,5,5-d6)-N-benzyl-5-chloro-3-methylthieno[3,2-b]pyridin-7-amine [Compound 278] | 30 to 300 nM | 30 to 300 nM
2-((1R,6S)-6-amino-2,2-difluorocyclohexyl)-3-bromo-5-chloro-N-(thiophen-2-ylmethyl)thieno[3,2-b]pyridin-7-amine and 2-((1S,6R)-6-amino-2,2-difluorocyclohexyl)-3-bromo-5-chloro-N-(thiophen-2-ylmethyl)thieno[3,2-b]pyridin-7-amine [Compound 269] | 30 to 300 nM | 30 to 300 nM
2-((1R,6S)-6-amino-2,2-difluorocyclohexyl)-3-bromo-N-((E)-but-2-en-1-yl)-5-chlorothieno[3,2-b]pyridin-7-amine and 2-((1S,6R)-6-amino-2,2-difluorocyclohexyl)-3-bromo-N-((E)-but-2-en-1-yl)-5-chlorothieno[3,2-b]pyridin-7-amine [Compound 425] | 300 to 1000 nM | > 1000 nM
2-((1R,6S)-6-amino-2,2-difluorocyclohexyl)-3-bromo-N-(but-2-yn-1-yl)-5-chlorothieno[3,2-b]pyridin-7-amine and 2-((1S,6R)-6-amino-2,2-difluorocyclohexyl)-3-bromo-N-(but-2-yn-1-yl)-5-chlorothieno[3,2-b]pyridin-7-amine [Compound 370] | 30 to 300 nM | 30 to 300 nM
2-((1R,6S)-6-amino-2,2-difluorocyclohexyl)-N-(but-2-yn-1-yl)-5-chloro-3-iodothieno[3,2-b]pyridin-7-amine and 2-((1S,6R)-6-amino-2,2-difluorocyclohexyl)-N-(but-2-yn-1-yl)-5-chloro-3-iodothieno[3,2-b]pyridin-7-amine [Compound 383] | 30 to 300 nM | 30 to 300 nM
2-((1S,2S)-2-aminocyclohexyl)-5-chloro-3-(fluoromethyl)-N-(thiophen-2-ylmethyl)thieno[3,2-b]pyridin-7-amine and 2-((1R,2R)-2-aminocyclohexyl)-5-chloro-3-(fluoromethyl)-N-(thiophen-2-ylmethyl)thieno[3,2-b]pyridin-7-amine [Compound 400] | 300 to 1000 nM | 300 to 1000 nM
2-((1S,6S)-6-aminocyclohex-3-en-1-yl)-3-bromo-5-chloro-N-(thiophen-2-ylmethyl)thieno[3,2-b]pyridin-7-amine and 2-((1R,6R)-6-aminocyclohex-3-en-1-yl)-3-bromo-5-chloro-N-(thiophen-2-ylmethyl)thieno[3,2-b]pyridin-7-amine [Compound 256] | ≤ 30 nM | 30 to 300 nM
2-((1S,6S)-6-aminocyclohex-3-en-1-yl)-5-chloro-N-(thiophen-2-ylmethyl)thieno[3,2-b]pyridin-7-amine [Compound 448] | 30 to 300 nM | > 1000 nM
2-((2R,3R)-3-amino-5-methylenetetrahydro-2H-pyran-2-yl)-3-bromo-5-chloro-N-(thiophen-2-ylmethyl)thieno[3,2-b]pyridin-7-amine and 2-((2S,3S)-3-amino-5-methylenetetrahydro-2H-pyran-2-yl)-3-bromo-5-chloro-N-(thiophen-2-ylmethyl)thieno[3,2-b]pyridin-7-amine [Compound 259] | 30 to 300 nM | 30 to 300 nM
2-((2R,3R)-3-aminobicyclo[3.2.1]octan-2-yl)-3-bromo-5-chloro-N-(thiophen-2-ylmethyl)thieno[3,2-b]pyridin-7-amine and 2-((2S,3S)-3-aminobicyclo[3.2.1]octan-2-yl)-3-bromo-5-chloro-N-(thiophen-2-ylmethyl)thieno[3,2-b]pyridin-7-amine [Compound 85] | > 1000 nM | > 1000 nM
2-((2R,3R)-3-aminotetrahydro-2H-pyran-2-yl)-3-bromo-5-chloro-1-(difluoromethyl)-N-(thiophen-2-ylmethyl)-1H-pyrrolo[3,2-b]pyridin-7-amine and 2-((2S,3S)-3-aminotetrahydro-2H-pyran-2-yl)-3-bromo-5-chloro-1-(difluoromethyl)-N-(thiophen-2-ylmethyl)-1H-pyrrolo[3,2-b]pyridin-7-amine [Compound 224] | ≤ 30 nM | ≤ 30 nM
2-((2R,3R)-3-aminotetrahydro-2H-pyran-2-yl)-5-chloro-3-iodo-N-(thiophen-2-ylmethyl)thieno[3,2-b]pyridin-7-amine and 2-((2S,3S)-3-aminotetrahydro-2H-pyran-2-yl)-5-chloro-3-iodo-N-(thiophen-2-ylmethyl)thieno[3,2-b]pyridin-7-amine [Compound 266] | 30 to 300 nM | 30 to 300 nM
2-((2R,3R)-3-aminotetrahydro-2H-pyran-2-yl)-5-chloro-N-(2-fluorobenzyl)thieno[3,2-b]pyridin-7-amine and 2-((2S,3S)-3-aminotetrahydro-2H-pyran-2-yl)-5-chloro-N-(2-fluorobenzyl)thieno[3,2-b]pyridin-7-amine [Compound 28] | > 1000 nM | > 1000 nM
2-((2R,3R)-3-aminotetrahydro-2H-pyran-2-yl)-5-chloro-N-(furan-2-ylmethyl)-3-methylthieno[3,2-b]pyridin-7-amine and 2-((2S,3S)-3-aminotetrahydro-2H-pyran-2-yl)-5-chloro-N-(furan-2-ylmethyl)-3-methylthieno[3,2-b]pyridin-7-amine [Compound 25] | 30 to 300 nM | 30 to 300 nM
2-((2R,3R)-3-aminotetrahydro-2H-pyran-2-yl)-N-benzyl-5-chlorothieno[3,2-b]pyridin-7-amine and 2-((2S,3S)-3-aminotetrahydro-2H-pyran-2-yl)-N-benzyl-5-chlorothieno[3,2-b]pyridin-7-amine [Compound 26] | 300 to 1000 nM | 300 to 1000 nM

From patent publication US20250382305A1 (PTC THERAPEUTICS, INC., priority 2022, published 2025)
